Measured values published in PubChem BioAssay (NCI).
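In this assay, cells in 96-well plates receive the compound at five concentrations for 48 hours. Endpoints are linearly interpolated between the surrounding concentrations. TGI marks complete inhibition of growth.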

What was measured:
Experiment in all cases: NCI anticancer screen, dose series, 48 h
PC-3 prostate = tested on: PC-3 prostate
IGROV1 ovarian = tested on: IGROV1 ovarian
MDA-MB-435 = tested on: MDA-MB-435
SK-MEL-2 melanoma = tested on: SK-MEL-2 melanoma
HCC-2998 colon = tested on: HCC-2998 colon
A549 NSCLC = tested on: A549 NSCLC
EKVX NSCLC = tested on: EKVX NSCLC
HCT-15 colon = tested on: HCT-15 colon
BT-549 breast = tested on: BT-549 breast
COLO 205 colon = tested on: COLO 205 colon
M14 melanoma = tested on: M14 melanoma
KM12 colon = tested on: KM12 colon
NCI-H460 lung = tested on: NCI-H460 lung
SNB-19 CNS = tested on: SNB-19 CNS
UACC-257 melanoma = tested on: UACC-257 melanoma
HS 578T breast = tested on: HS 578T breast
NCI-H522 lung = tested on: NCI-H522 lung
SK-OV-3 ovarian = tested on: SK-OV-3 ovarian
OVCAR-8 ovarian = tested on: OVCAR-8 ovarian
HT29 colon = tested on: HT29 colon
K-562 leukemia = tested on: K-562 leukemia
OVCAR-5 ovarian = tested on: OVCAR-5 ovarian
SF-539 CNS = tested on: SF-539 CNS
MALME-3M melanoma = tested on: MALME-3M melanoma
OVCAR-3 ovarian = tested on: OVCAR-3 ovarian
SK-MEL-5 melanoma = tested on: SK-MEL-5 melanoma
NCI-H226 lung = tested on: NCI-H226 lung
MCF7 breast = tested on: MCF7 breast
HOP-62 NSCLC = tested on: HOP-62 NSCLC
SW-620 colon = tested on: SW-620 colon
TK-10 renal = tested on: TK-10 renal
CCRF-CEM leukemia = tested on: CCRF-CEM leukemia
SK-MEL-28 melanoma = tested on: SK-MEL-28 melanoma
ACHN renal = tested on: ACHN renal
HL-60(TB) leukemia = tested on: HL-60(TB) leukemia
HCT-116 colon = tested on: HCT-116 colon
786-0 renal = tested on: 786-0 renal
RPMI-8226 leukemia = tested on: RPMI-8226 leukemia
SNB-75 CNS = tested on: SNB-75 CNS
MDA-MB-231 breast = tested on: MDA-MB-231 breast
T-47D breast = tested on: T-47D breast
SF-295 CNS = tested on: SF-295 CNS
A498 renal = tested on: A498 renal
LOX IMVI melanoma = tested on: LOX IMVI melanoma
UO-31 renal = tested on: UO-31 renal
MDA-N = tested on: MDA-N
DU-145 prostate = tested on: DU-145 prostate
SR leukemia = tested on: SR leukemia
SF-268 CNS = tested on: SF-268 CNS
U251 CNS = tested on: U251 CNS
NCI/ADR-RES ovarian = tested on: NCI/ADR-RES ovarian
HOP-92 NSCLC = tested on: HOP-92 NSCLC
UACC-62 melanoma = tested on: UACC-62 melanoma
NCI-H23 lung = tested on: NCI-H23 lung
OVCAR-4 ovarian = tested on: OVCAR-4 ovarian
MOLT-4 leukemia = tested on: MOLT-4 leukemia
SN12C renal = tested on: SN12C renal
CAKI-1 renal = tested on: CAKI-1 renal
RXF 393 renal = tested on: RXF 393 renal

Measured: TGI

COC(=O)C1CCC(=O)N1C(c1ccc2c(c1)OCO2)c1ccc2c(c1)OCO2 (stereo not drawn)
not listed: RXF 393 renal
> 100 µM: all other assays above

CCc1n[nH]c(=O)n1NC(=O)/C=C\C(=O)O
not listed: KM12 colon | SNB-19 CNS | SW-620 colon | SK-MEL-28 melanoma | ACHN renal | RPMI-8226 leukemia | LOX IMVI melanoma | UO-31 renal | HOP-92 NSCLC
> 100 µM: all other assays above
